Source: patent US8802416B2, “Thermostable organic solvent tolerant protease from gram-positive bacteria” (Universiti Putra Malaysia, priority 2009, dated 2014)
Square brackets hold non-standard residues; d marks the D form. Peptide text beside a SMILES is read from it. * marks the point of attachment. Sta = CC(C)C[C@H](N)[C@@H](O)CC(=O)O; Isovaleryl = CC(C)CC(=O)*

Key:
[1] = system: Rand protease; experiment: Effect of metal ions on protease activity; type: biochemical, Bacillus subtilis isolate Rand; details: 5 mM metal ion, 37° C., 30 min; control no ions
Method: Purified Rand protease was treated with 5 mM of various metal ions at 37° C. for […].
The effect of metal ions on protease activity was determined by incubating the protease with different metal ions at 5 mM final concentration. The metal ions used were K^+, Na^+, Mg^2+, Ca^2+, Mg^2+, Fe^2+, Co^2+, Cu^2+, Zn^2+ and […]. The samples were incubated at 37° C. for 30 min. […] The control contained no ions.

[2] = system: Rand protease; experiment: Effect of inhibitors on protease activity; type: biochemical, Bacillus subtilis isolate Rand; details: 5 mM inhibitor, 30 min at 37° C., relative to control
Method: Purified Rand protease was incubated with 5 mM of different inhibitors at 37° C. for 30 min.
All the inhibitors were used at 5 mM final concentration.

[3] = system: Rand protease; experiment: Effect of organic solvents on stability of crude Rand protease (cell-free supernatant); type: biochemical, Bacillus subtilis isolate Rand; details: 25% (v/v) solvent, 55° C., 150 rpm, 30 min, control distilled water
Method: 1. […] Three ml aliquots of a cell-free supernatant culture were incubated with 1 ml of different organic solvents at 55° C. with shaking at 150 rpm for 30 min.
Each sample was run in triplicate.
Isolate Rand was cultured aerobically at 50° C. for 24 h in the absence of organic solvents. The culture medium was then centrifuged at 12,000×g and 4° C. for 10 min. The supernatant was filtered with a cellulose acetate membrane filter (pore size 0.22 μm). One mL organic solvent was added to 3.0 mL of the cell-free supernatant and the whole mixture was incubated in shaker 150 rpm at 55° C. for 30 min. The samples were removed and immediately vortex prior to assay at zero time and after incubation period. For control the solvent was replaced by distilled water.

[4] = system: Bacillus sp. TKU004 protease; details: zinc ions; cited from earlier work
[5] = system: thermophilic Bacillus strain HS08 protease; details: cited from earlier work
[6] = system: protease activity of B. megaterium; details: presence of Zn2+; cited from earlier work
[7] = cited from earlier work
[8] = system: Rand protease; experiment: Effect of organic solvents on purified Rand protease activity; type: biochemical, Bacillus subtilis isolate Rand; details: 25% (v/v) solvent, 37° C., 150 rpm, 30 min, no solvent = 100%
Method: . Three ml of purified Rand protease were incubated with 1 ml of different organic solvents at 37° C. with shaking at 150 rpm for 30 min. The activity of the enzyme without any solvent (none) was taken as 100%.
The effects of organic solvents with various log P on protease activity were determined. […] . The control was done in the absent of organic solvent and assay under the same experimental conditions. The protease was incubated in the presence of 25% (v/v) of organic solvents for 30 min. The incubation was performed at 37° C. in water bath shaker with 150 rpm. The samples were removed and immediately vortex prior to assay the protease activity.

[Mg+2] [Mg^2+]
protease activity in the presence of metal ion [1]: inhibitory effects

[Cu+2] [Cu^2+]
protease activity in the presence of metal ion [1]: inhibitory effects

O=S(=O)(F)Cc1ccccc1 [PMSF, phenylmethanesulfonyl fluoride]
reduction (inhibition) of protease activity [2]: completely inhibited

c1ccncc1 [pyridine]
remaining activity of Rand protease in the presence of organic solvent [3]: no activity was observed

[Zn+2] [Zn^2+]
activity of the apo-enzyme restored, of the original level [4]: 75% | relative activity ([5]; 2 mM Zn2+): 109% | relative activities [6]: 28%

CCCCCCCCCCCCCC [n-tetradecane]
log P [7]: 7.6

OCCS [2-mercaptoethanol, 2-Mercaptoethanol]
reduction (inhibition) of protease activity [2]: About 90%

CC(C)CC(=O)N[C@H](C(=O)N[C@H](C(=O)N[C@@H](CC(C)C)[C@@H](O)CC(=O)N[C@@H](C)C(=O)N[C@@H](CC(C)C)[C@@H](O)CC(=O)O)C(C)C)C(C)C [Pepstatin A, pepstatin A] (Isovaleryl-VV[Sta]A[Sta]-OH)
protease activity retained [2]: ~63%

CC(C)C[C@H](NC(=O)[C@@H](O)[C@H](N)Cc1ccccc1)C(=O)O [Bestatin, bestatin]
protease activity retained [2]: about 95%

[Fe+2] [Fe^2+]
protease activity in the presence of metal ion [1]: inhibitory effects

CCCCCCCCCCCC [n-dodecane]
log P [7]: 6.0

[Ni+2] [Ni^2+]
protease activity in the presence of metal ion [1]: inhibitory effects

Cc1ccccc1 [toluene]
remaining activity of Rand protease in the presence of organic solvent [3]: 130% | remaining activity of Rand protease in the presence of organic solvent ([3]; listed as toluen): enhanced

[Ca+2] [Ca^2+]
protease activity in the presence of metal ion [1]: around 89% | influence on proteolytic activity ([5]; Ca2+ ions): did not show any influence

[Co+2] [Co^2+]
protease activity in the presence of metal ion [1]: inhibitory effects

O[C@@H](CS)[C@@H](O)CS (racemic) [DTT, 1,4-Dithio-DL-threitol]
reduction (inhibition) of protease activity [2]: 30%

[K+] [K^+]
protease activity in the presence of metal ion [1]: ~112%

ClC(Cl)Cl [chloroform]
relative activity remaining in organic solvent [8]: 18%
